# Measured values published in patent US7534894B2, “Biphenyloxy-acids” (Wyeth, priority 2003, dated 2009).
# How the values were obtained:
# [1] = biological target: T1, recombinant human plasminogen activator inhibitor-1 (PAI-1) (Homo sapiens, UniProt P05121); assay: Primary Screen for the PAI-1 Inhibition (residual tPA activity, chromogenic substrate Spectrozyme-tPA); type: biochemical; conditions: 140 nM PAI-1, 70 nM tPA, pH 6.6; for inhibition at 25 µM: 25 μM test compound; for inhibition at 100 µM: 100 μM test compound
# T1 construct: purchased Molecular Innovations, Royal Oak, Mich
# Protocol: Test compounds are dissolved in DMSO at a final concentration of 10 mM, then diluted 101× in physiologic buffer. The inhibitory assay is initiated by the addition of the test compound (1-100 μM final concentration, maximum DMSO concentration of 0.2%) in a pH 6.6 buffer containing 140 nM recombinant human plasminogen activator inhibitor-1 (PAI-1; Molecular Innovations, Royal Oak, Mich.). Following a 1 hour incubation at room temperature, 70 nM of recombinant human tissue plasminogen activator (tPA) is added, and the combination of the test compound, PAI-1 and tPA is incubated for an additional 30 minutes. Following the second incubation, Spectrozyme-tPA (American Diagnostica, Greenwich, Conn.), a chromogenic substrate for tPA, is added and absorbance read at 405 nm at 0 and 60 minutes. Relative PAI-1 inhibition is equal to the residual tPA activity in the presence of the test compound and PAI-1. Control treatments include the complete inhibition of tPA by PAI-1 at the molar ratio employed (2:1), and the absence of any effect of the test compound on tPA alone.
# human PAI-1 = human PAI-1 (Homo sapiens, UniProt P05121); assay: Antibody Assay for Determining IC50 of Inhibition of PAI-1 (active PAI-1 bound to tPA-coated plate, 33B8 antibody); type: binding; conditions: test compound incubated with human PAI-1 50 ng/ml, pH 7.5
# Protocol: This assay is based upon the non-SDS dissociable interaction between tPA and active PAI-1. Assay plates are initially coated with human tPA (10 μg/ml). Test compounds of the present invention are dissolved in DMSO at 10 mM, then diluted with physiologic buffer (pH 7.5) to a final concentration of 1-50 μM. Test compounds are incubated with human PAI-1 (50 ng/ml) for 15 minutes at room temperature. The tPA-coated plate is washed with a solution of 0.05% Tween 20 and 0. 1% BSA, then the plate is blocked with a solution of 3% BSA. An aliquot of the substituted biphenyloxy acid/PAI-1 solution is then added to the tPA-coated plate, incubated at room temperature for 1 hour, and washed. Active PAI-1 bound to the plate is assessed by adding an aliquot of a 1:1000 dilution of the 33B8 monoclonal antibody against human PAI-1, and incubating the plate at room temperature for 1 hour (Molecular Innovations, Royal Oak, Mich.). The plate is again washed, and a solution of goat anti-mouse IgG-alkaline phosphatase conjugate is added at a 1:50,000 dilution in goat serum. The plate is incubated 30 minutes at room temperature, washed, and a solution of alkaline phosphatase substrate is added. The plate is incubated 45 minutes at room temperature, and color development is determined at OD405nm. The quantitation of active PAI-1 bound to tPA at varying concentrations of the test compound is used-to determine the IC50. Results are analyzed using a logarithmic best-fit equation. The assay sensitivity is 5 ng/ml of human PAI-1 as determined from a standard curve ranging from 0-100 ng/ml.
# Sequence of human PAI-1 (P05121 24-402): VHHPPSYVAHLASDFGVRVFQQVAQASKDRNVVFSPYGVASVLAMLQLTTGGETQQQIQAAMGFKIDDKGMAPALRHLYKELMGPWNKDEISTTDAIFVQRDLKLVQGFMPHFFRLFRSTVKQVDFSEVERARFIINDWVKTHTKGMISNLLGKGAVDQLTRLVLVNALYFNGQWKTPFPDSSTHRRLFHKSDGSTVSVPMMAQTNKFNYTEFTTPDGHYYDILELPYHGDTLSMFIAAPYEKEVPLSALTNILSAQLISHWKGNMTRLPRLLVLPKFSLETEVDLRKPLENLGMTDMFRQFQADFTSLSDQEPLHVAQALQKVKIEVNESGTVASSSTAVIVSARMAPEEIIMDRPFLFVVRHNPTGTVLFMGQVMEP
# T1 sequence (P05121 24-402): as above
inhibition at 25 µM [1] [%],inhibition at 100 µM [1] [%],IC50 (human PAI-1) [µM],melting point [°C],Structure (SMILES)
47,88,37.5,204 to 206,"CCCc1c(C(=O)NCc2ccc(-c3ccc(OCC(=O)O)c(Br)c3)cc2)cnn1-c1ccccc1 [Compound 3, {[3-bromo-4′-({[(1-phenyl-5-propyl-1H-pyrazol-4-yl)carbonyl]amino}methyl)[1,1′-biphenyl]-4-yl]oxy}acetic acid]"
41,81,46.3,239,"CN(Cc1ccc(-c2ccc(OCc3nnn[nH]3)c(Br)c2)cc1)C(=O)c1cn(C)c2ccccc12 [Compound 9, N-{[3′-bromo-4′-(1H-tetraazol-5-ylmethoxy)-1,1′-biphenyl-4-yl]methyl}-N,1-dimethyl-1H-indole-3-carboxamide]"
64,100,18.7,72 to 78,"CCCCc1oc2ccccc2c1C(=O)N(C)Cc1ccc(-c2ccc(OCC(=O)O)c(Br)c2)cc1 [Compound 7, [(3-bromo-4′-{[[(2-butyl-1-benzofuran-3-yl)carbonyl](methyl)amino]methyl}-1,1′-biphenyl-4-yl)oxy]acetic acid]"
55,96,20,79 to 86,"CCCCc1oc2ccccc2c1C(=O)N(C)Cc1ccc(-c2ccc(OC(Cc3ccccc3)C(=O)O)c(Br)c2)cc1 (stereo not shown) [Compound 8, 2-[(3-bromo-4′-{[[(2-butyl-1-benzofuran-3-yl)carbonyl](methyl)amino]methyl}-1,1′-biphenyl-4-yl)oxy]-3-phenylpropanoic acid]"
